Measurements from article PMC4831212 (The Biochemical journal, 2013).

Columns and labels:
Assay in all cases: FRET lipid mixing of SNARE liposomes
Assay type in all cases: biochemical
Conditions in all cases: 37°C; 10 µM polyphenol (as in Figure 2)
SNAP-23/Syn4/VAMP2 [1] = target: T1, SNAP-23/Syn4/VAMP2 (Rattus norvegicus, UniProt O70377+P63045+Q08850)
SNAP-23/Syn4/VAMP8 = target: T2, SNAP-23/Syn4/VAMP8 (Rattus norvegicus, UniProt O70377+Q08850+Q9WUF4)
T2 sequence (O70377 1-210): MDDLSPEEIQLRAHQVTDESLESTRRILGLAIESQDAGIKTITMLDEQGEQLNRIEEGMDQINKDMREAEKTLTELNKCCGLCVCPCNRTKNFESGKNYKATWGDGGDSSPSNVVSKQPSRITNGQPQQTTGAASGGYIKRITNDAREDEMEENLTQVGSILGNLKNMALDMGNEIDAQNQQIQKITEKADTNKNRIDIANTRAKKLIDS
T2 sequence (Q08850 1-298): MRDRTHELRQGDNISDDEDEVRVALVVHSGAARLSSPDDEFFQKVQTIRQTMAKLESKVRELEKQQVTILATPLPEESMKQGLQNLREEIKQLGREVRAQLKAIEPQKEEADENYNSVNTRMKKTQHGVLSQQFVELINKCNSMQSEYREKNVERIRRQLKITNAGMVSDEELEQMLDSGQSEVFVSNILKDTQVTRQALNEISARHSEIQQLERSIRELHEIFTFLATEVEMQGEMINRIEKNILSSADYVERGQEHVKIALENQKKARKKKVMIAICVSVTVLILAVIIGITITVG
T2 sequence (Q9WUF4 1-100): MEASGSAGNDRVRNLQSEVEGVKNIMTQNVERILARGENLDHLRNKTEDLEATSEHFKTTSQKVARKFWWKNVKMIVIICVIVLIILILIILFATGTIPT

SNAP-23/Syn4/VAMP2 [2] = target: T1, SNAP-23/Syn4/VAMP2; remark: listed apart in the source

T1 sequence (P63045 2-116, one chain of several): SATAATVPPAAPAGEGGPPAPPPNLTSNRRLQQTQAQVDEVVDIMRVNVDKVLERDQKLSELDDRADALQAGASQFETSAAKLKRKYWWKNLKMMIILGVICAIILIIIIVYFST

## O=c1cc(-c2ccc(O)cc2)oc2cc(O)cc(O)c12 [AP, apigenin]
SNAP-23/Syn4/VAMP2 [1]
  % inhibition: ~ 40%
SNAP-23/Syn4/VAMP8
  % inhibition: ~ 90%

## Oc1cc(O)c2cc(O)c(-c3cc(O)c(O)c(O)c3)[o+]c2c1 [DL, delphinidin]
SNAP-23/Syn4/VAMP8
  % inhibition: ~ 60%

## COc1cc2c(c(OC)c1OC)-c1c(cc3c(c1OC)OCO3)CC(C)C(C)C2 (centres unmarked) [GN, gomisin N]
SNAP-23/Syn4/VAMP2 [2]
  % inhibition: these polyphenols robustly inhibited SNAP-23/Syn4/VAMP2- driven fusion

## O=c1c(O)c(-c2cc(O)c(O)c(O)c2)oc2cc(O)cc(O)c12 [MR, myricetin]
SNAP-23/Syn4/VAMP2 [1]
  % inhibition: 75-90%
SNAP-23/Syn4/VAMP8
  % inhibition: 75-90%

## C[C@@H]1O[C@@H](OC[C@H]2O[C@@H](Oc3c(-c4ccc(O)c(O)c4)oc4cc(O)cc(O)c4c3=O)[C@H](O)[C@@H](O)[C@@H]2O)[C@H](O)[C@H](O)[C@H]1O [RT, rutin]
SNAP-23/Syn4/VAMP2 [2]
  % inhibition: did not inhibit SNAP-23/Syn4/VAMP8- driven fusion, but did inhibit SNAP-23/Syn4/VAMP2-driven fusion

## O=C(O)/C=C/c1ccccc1 [TC, trans-cinnamic acid]
SNAP-23/Syn4/VAMP2 [2]
  % inhibition: these polyphenols robustly inhibited SNAP-23/Syn4/VAMP2- driven fusion
